Test results reported in paper PMC5045374 (Oncotarget, 2016).

Experiments:
[1] = tested on: neuroblastoma tumor growth; conditions: orthotopic xenograft tumor growth and TH-ALKF1174L/TH-MYCN mouse model; cited from earlier work
[2] = tested on: CLB-BAR (ALK-Δ4-11, ALK addicted) neuroblastoma cells; test: Proliferation assay (resazurin cell viability), CLB-BAR; assay type: cell-based; conditions: Homo sapiens, 72 hours, read-out: IC50 (cell growth)
Experimental: (§1) Cells were seeded at 15,000 per well with serial dilutions of the indicated inhibitors. After 72 hours cell viability was assessed by resazurin (Sigma, Sweden). IC50 values were calculated with GraphPad Prism 6.0 by fitting data to a log (inhibitor concentration) vs. normalized response (variable slope) equation. Each experiment was performed in duplicate and repeated at least three times.

[3] = tested on: CLB-GE (ALK-F1174V, ALK addicted) neuroblastoma cells; test: Proliferation assay (resazurin cell viability), CLB-GE; assay type: cell-based; conditions: Homo sapiens, 72 hours, read-out: IC50 (cell growth)
Experimental: as §1

[4] = tested on: IMR32 (ALK-WT, non-ALK addicted) neuroblastoma cells; test: Proliferation assay (resazurin cell viability), IMR32; assay type: cell-based, human; conditions: IMR32, 72 hours
Experimental: as §1

[5] = tested on: CLB-PE (ALK-WT, non-ALK addicted) neuroblastoma cells; test: Proliferation assay (resazurin cell viability), CLB-PE; assay type: cell-based, human; conditions: 72 hours
Experimental: as §1

ALK mutants = test: Neurite outgrowth assay in PC12 cells, ALK mutants; assay type: cell-based, human
Experimental: PC12 cells (2 x10^6) co-transfected, in 100 μl of Ingenio electroporation solution (Minus Bio LCC), with pEGFPN1 (Clonetech) (0.5 ng) and ALK-mutant (0.75 ng) or ALK-wt (0.75 ng) as indicated were seeded sparingly into 24-well plates. ALK-wild type was stimulated with 1 μg/ml mAb31. After 48 hours post transfection, the fraction of GFP-positive and neurite carrying cells versus GFP-positive cells were analyzed under a Zeiss Axiovert 40 CFL microscope. A cell was considered as neurite-carrying if it had neurite(s) that reached at least twice the length of the diameter of a normal cell body. The experiments were performed at least three times in triplicates.

CLB-BAR cells = test: Xenograft neuroblastoma model in vivo; design: species or system BalbC/NUDE mice
From the text: In the first investigation mice (n=3) were employed and in the second investigation mice (n=5) were employed. […] In the second investigation where 5 mice were employed a subset of mice (n=2) were released from treatment after 14 days, for a further 8 days (blue curve). […] C. […] Data are means +/− SE from 8 tumours, p values indicated; Student's t test.
Female Balbc/nude mice (Charles River, Germany) at 5-6 weeks age were maintained in a pathogen-free environment. For xenografts, 2.5 million CLB-BAR cells (MYCN amplified, ALK (Δ4-11) amplified) were injected subcutaneously. Once tumor volume achieved about 50mm^3, drug was given at 50 mg/kg body weight, by oral gavage, once daily, continuously for 14 days. Mice were grouped by tumor volume randomly. Tumor volume was calculated with the following equation: V=0.5236×L×W^2 (V=volume, L=longest, W=width).
Mice were sacrificed and tumors were collected. Tumors were fixed in 4% PFA, followed by 15% and 30% sucrose in PBS. Tumors were embedded in OCT compound (VWR chemicals) and frozen at −80°C. […] Secondary antibodies (Cell Signaling Tech., Danver, MA) were applied for 2 hours at room temperature. Impact DAB (Vector Laboratories, SK 4105) was employed for staining followed by hematoxylin cross-staining (Sigma-Aldrich). After mounting sections, images were taken using an Axio zoom V16 stereo microscope (Zeiss).

ALK-positive NSCLC = conditions: cited from earlier work
[6] = inferred from CNS responses in NSCLC patients; cited from earlier work
[7] = immunoblotting, vs control group

C[C@@H](Oc1cc(-c2cnn(C3CCNCC3)c2)cnc1N)c1c(Cl)ccc(F)c1Cl [crizotinib]
efficacy as a single agent treatment [1]: limited efficacy

COc1cc(N2CCC(N3CCN(C)CC3)CC2)ccc1Nc1ncc(Cl)c(Nc2ccccc2P(C)(C)=O)n1 [brigatinib]
IC50 [2]: 0.0753 ± 0.00889 µM
IC50 [3]: 0.1 ± 0.0175 µM
inhibition of cell growth [4]: Neither brigatinib nor crizotinib was able to inhibit growth
inhibition of cell growth [5]: Neither brigatinib nor crizotinib was able to inhibit growth
block of neurite outgrowth compared with crizotinib (ALK mutants; ALK-G1269A, ALK-R1275 and ALK-R1192P, brigatinib 15 and 30 nM vs crizotinib 250 nM): more efficiently than crizotinib
neurite outgrowth of all tested ALK mutants (ALK mutants; PC12 cells, 48 hours): could abrogate neurite outgrowth
tumor weight (CLB-BAR cells; 50 mg/kg once daily oral gavage, 14 days, vs controls, p=0.01): significantly reduced
tumor volume / tumor growth (CLB-BAR cells; 50 mg/kg once daily oral gavage, 14 days, vs vehicle, p=0.0004): considerably inhibits proliferation of tumor growth
side effect in vivo (CLB-BAR cells; 50 mg/kg once daily, 14 days): no obvious side effect
body weight of mice (CLB-BAR cells; 50 mg/kg once daily, 14 days, p=0.9): did not show any variation
MYCN protein levels in tumor material (CLB-BAR cells; [7]): decreased protein levels
phospho-ALK levels in tumor material (CLB-BAR cells; [7]): decreased phospho-ALK levels
phosphorylated ERK5 and AKT in tumor material (CLB-BAR cells; [7]): reduced phosphorylation
total ALK protein levels in tumor material (CLB-BAR cells; [7]): No obvious change
tumor volume/growth after discontinuation of treatment (CLB-BAR cells; treatment discontinued after 14 days, for 8 days, n=2): increase in tumor volume/growth
Ki-67 proliferation marker in excised tumor (CLB-BAR cells; vs controls, p=0.0005): significantly reduced proliferation
patients with non-measureable CNS lesions with disappearance of all lesions (ALK-positive NSCLC; 8/26 patients): 31%
patients responding to treatment (ALK-positive NSCLC; crizotinib refractory ALK-positive NSCLC patients): about 72%
response in patients with baseline CNS metastases (ALK-positive NSCLC; radiological review, 6/12 patients): 50%
blood-brain barrier penetration [6]: able to penetrate the blood-brain barrier
